In the test the target is E3 ubiquitin-protein ligase CBL-B (Homo sapiens, UniProt Q13191). Kind of test: Binding affinity to Cbl-b (unknown origin) assessed as inhibition constant incubated for 60 mins by TR-FRET assay. For orientation: TR-FRET usually uses a lanthanide donor and a delayed reading to cut background.
E3 ubiquitin-protein ligase CBL-B, sequence (Q13191 whole entry): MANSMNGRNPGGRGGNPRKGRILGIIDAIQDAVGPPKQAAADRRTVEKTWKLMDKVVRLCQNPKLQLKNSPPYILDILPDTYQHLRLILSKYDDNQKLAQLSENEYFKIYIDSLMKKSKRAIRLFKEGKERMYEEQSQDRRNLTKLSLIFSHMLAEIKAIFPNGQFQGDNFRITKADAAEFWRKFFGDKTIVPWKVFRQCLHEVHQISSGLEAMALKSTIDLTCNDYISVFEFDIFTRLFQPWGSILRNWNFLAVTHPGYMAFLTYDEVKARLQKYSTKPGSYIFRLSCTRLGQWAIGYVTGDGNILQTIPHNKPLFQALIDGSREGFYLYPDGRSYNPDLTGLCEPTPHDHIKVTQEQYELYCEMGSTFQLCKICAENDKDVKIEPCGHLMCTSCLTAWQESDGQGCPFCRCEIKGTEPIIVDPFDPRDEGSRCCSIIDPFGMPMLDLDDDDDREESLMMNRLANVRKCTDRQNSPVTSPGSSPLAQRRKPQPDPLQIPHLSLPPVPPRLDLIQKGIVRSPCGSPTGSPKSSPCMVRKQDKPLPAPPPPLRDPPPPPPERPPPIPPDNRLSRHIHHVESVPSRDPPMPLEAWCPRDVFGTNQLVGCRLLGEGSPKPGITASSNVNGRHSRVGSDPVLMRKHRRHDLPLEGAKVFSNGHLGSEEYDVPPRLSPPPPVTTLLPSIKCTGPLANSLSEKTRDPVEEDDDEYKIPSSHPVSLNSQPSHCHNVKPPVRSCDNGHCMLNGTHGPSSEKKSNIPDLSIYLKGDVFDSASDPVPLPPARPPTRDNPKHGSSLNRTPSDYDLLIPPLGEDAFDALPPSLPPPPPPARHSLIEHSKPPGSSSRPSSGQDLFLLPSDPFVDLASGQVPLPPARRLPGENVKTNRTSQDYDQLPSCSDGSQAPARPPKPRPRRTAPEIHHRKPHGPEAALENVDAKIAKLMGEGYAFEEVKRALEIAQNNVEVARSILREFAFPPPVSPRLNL
For the compound `C[C@H]1CCCN(Cc2cc3c(C(F)(F)F)cn(-c4cccc(-c5ccccc5-c5nncn5C)c4)c(=O)c3[nH]2)C1`, the Ki – broadly, the dissociation constant of the complex between target and ligand, obtained from inhibition or displacement – amounted to 7.04 nM. To `Cn1cnnc1[C@]1(c2cccc(-n3cc(C(F)(F)F)c4cc(CN5CCC[C@H]6C[C@H]65)[nH]c4c3=O)c2)C[C@H](C)C1` belongs 1.16 nM; to `CCN(Cc1cc2c(C(F)(F)F)cn(-c3cccc([C@]4(c5nncn5C)C[C@@H](OC)C4)c3)c(=O)c2[nH]1)CC(C)C`, 3.88 nM; to `C/C=C1\C[C@@](c2cccc(-n3cc(C(F)(F)F)c4cc(CN5CCC[C@H](C)C5)[nH]c4c3=O)c2)(c2nncn2C)C1` (stereo partly specified), 2.89 nM. To `C[C@H]1CCCN(Cc2cc3ccn(-c4cccc(C5(Cc6nncn6C)COC5)c4)c(=O)c3[nH]2)C1` belongs 18 nM; to `CCN(CC)Cc1cc2c(C(F)(F)F)cn(-c3cccc(C4(c5nncn5C)CCC4)c3)c(=O)c2[nH]1`, 2.58 nM. To `C[C@H]1CCCN(Cc2cc3c(C(F)(F)F)cn(-c4cccc([C@@H](c5nncn5C)C5CCC5)c4)c(=O)c3[nH]2)C1` belongs 3.67 nM; to `Cn1cnnc1C1(c2cccc(-n3cc(C(F)(F)F)c4cc(CN5CCCC6(CC6)C5)[nH]c4c3=O)c2)CCC1`, 1.82 nM; to `C[C@H]1CCCN(Cc2cc3c(C(F)(F)F)cn(-c4cccc(C5(c6nncn6C)CC(F)(F)C5)c4)c(=O)c3[nH]2)C1`, 1.18 nM. With `CC[C@H]1C[C@@](c2cccc(-n3cc(C(F)(F)F)c4cc(CN5CCC[C@H](C)C5)[nH]c4c3=O)c2)(c2nncn2C)C1`, the Ki is 1.14 nM. Then `CO[C@H]1C[C@@](c2cccc(-n3cc(C(F)(F)F)c4cc(CN5CC6CC6C5)[nH]c4c3=O)c2)(c2nncn2C)C1` (stereo partly specified), with 3.01 nM; and `Cn1cnnc1[C@]1(c2cccc(-n3cc(C(F)(F)F)c4cc(CN5CC6CC6C5)[nH]c4c3=O)c2)C[C@H](C)C1` (stereo partly specified), with 0.86 nM. Turning to `CC[C@H]1C[C@](c2cccc(-n3cc(C(F)(F)F)c4cc(CN5CCC[C@H](C)C5)[nH]c4c3=O)c2)(c2nncn2C)C1`, the Ki is 1.22 nM.

For `C[C@H]1CCCN(Cc2cc3c(C4CC4)cn(-c4cccc(C5(Cc6nncn6C)COC5)c4)c(=O)c3[nH]2)C1`, the Ki turned out to be 1.43 nM. For the compound `C[C@H]1CCCN(Cc2cc3c(C4CC4)cn(-c4cccc([C@@H](c5nncn5C)C5CCC5)c4)c(=O)c3[nH]2)C1`, the Ki was determined as 38.2 nM. In the case of `C[C@H]1CCCN(Cc2cc3c(Br)cn(-c4cccc(C5(Cc6nncn6C)COC5)c4)c(=O)c3[nH]2)C1`, the Ki turned out to be 2.79 nM. To `C[C@H]1CCCN(Cc2cc3c(C(F)(F)F)cn(-c4cccc([C@]5(c6nncn6C)C[C@@H](OC(F)(F)F)C5)c4)c(=O)c3[nH]2)C1` belongs 1.34 nM; to `Cn1cnnc1[C@]1(c2cccc(-n3cc(C(F)(F)F)c4cc(CNC5(C)CCC5)[nH]c4c3=O)c2)C[C@H](C)C1`, 0.86 nM; to `C[C@H]1CCCN(Cc2cc3c(C(F)(F)F)cn(-c4cccc(C5(c6nncn6C)CCC5)c4)c(=O)c3[nH]2)C1`, 1.02 nM.

For the compound `CO[C@H]1C[C@](c2cccc(-n3cc(C(F)(F)F)c4cc(CN5CC6CC6C5)[nH]c4c3=O)c2)(c2nncn2C)C1` (stereo partly specified), the Ki turned out to be 5.45 nM. Then `CO[C@H]1C[C@](c2cccc(-n3cc(C(F)(F)F)c4cc(CN5CC6CCC(C6)C5)[nH]c4c3=O)c2)(c2nncn2C)C1`, with 5.43 nM. Then `Cn1cnnc1C1(c2cccc(-n3cc(C(F)(F)F)c4cc(CN5CC6CC6C5)[nH]c4c3=O)c2)CCC1` (stereo unspecified), with 2.34 nM; and `C[C@H]1CCCN(Cc2cc3c(S(C)(=O)=O)cn(-c4cccc(C5(Cc6nncn6C)COC5)c4)c(=O)c3[nH]2)C1`, with 14.2 nM. Then `Cn1cnnc1[C@]1(c2cccc(-n3cc(C(F)(F)F)c4cc(CN5CCC[C@@H]6C[C@@H]65)[nH]c4c3=O)c2)C[C@H](C)C1`, with 1.81 nM; and `C[C@H]1CCCN(Cc2cc3c(C(F)(F)F)cn(-c4cccc([C@]5(c6nncn6C)C[C@@H](F)C5)c4)c(=O)c3[nH]2)C1`, with 1.25 nM; and `Cn1cnnc1C1(c2cccc(-n3cc(C(F)(F)F)c4cc(CN5CCC[C@H]6C[C@H]65)[nH]c4c3=O)c2)CCC1`, with 2 nM.

Source of the values: ChEMBL document CHEMBL6177960, “Rational design, optimization, and biological evaluation of novel pyrrolo-pyridone derivatives as potent and orally active Cbl-b inhibitors” (Eur J Med Chem, 2025).
